These results are taken from patent US6627664B2, “Perylenequinones for use as sonosensitizers” (Altachem Pharma Ltd., priority 2001, dated 2003).

The subject of data set [1] is cells. To be noted: for Photopotentiation Factor: LD50 dark divided by LD50 light; for LD50 Light: light dose not fixed, 0.75-1.0 J/cm2 of 630 nm light. From the text: As used herein, “photopotentiation factor” refers to the property of the compound(s) to exert light- or sound-mediated toxicity in excess of its (their) inherent unactivated toxicity. […] Where the term “LD50” has been used above, the term “IC50” may be substituted, to address the bioassays that concern metabolic activity rather than the endpoint of lethality, loss of reproductive capability, or clonogenic death. The relative photoactivation efficiency of a compound may also be determined using a clonogenic assay, an assay that is well known to those skilled in the art.
In accordance with the present invention, a desirable PQP derivative is one that is non-toxic (or of low toxicity) at high drug concentrations without activation, i.e., without light (also referred to as “dark”), and/or without sound, and is toxic at low concentrations when light of the appropriate wavelength, or sound of the appropriate frequency, is applied. As is recognized by those skilled in the art, the most desirable compounds are those that provide a wide range of non-toxic doses in an unactivated state, as this characteristic provides an increased safety factor for the patient.

Data set [2] is described as follows: Singlet oxygen (1O2) yield. The format is physicochemical.
Data set [3] is described as follows: Light absorption properties (red spectral region, 630 nm). Type of data set: physicochemical. The conditions noted are these: for A630: absorbance at 630 nm.
A short description of data set [4]: Pharmacokinetics / tissue uptake of 14C-HB in tumor-bearing mice. The format is in vivo, Balb/c mice. From the text:
The excellent fluorescence properties of the hypocrellins and derivatives provide a valuable tool to monitor intracellular uptake and distribution kinetics by confocal laser scanning microscopy (CLSM). Each drug has unique properties of uptake and distribution (Miller et al 1995 a, b). The rate cells take up drug in humans […] can be determined using similar protocols as Liu et al 1995 and Miller et al., 1995 a or b). In vivo, the ideal time between i.v. injection or administration of the drug and light administration is preferably when tumor concentration of the photodynamic agent is optimal with respect to normal tissues, typically up to about 24 hours, but as long as 48 hours or more (Table 2).
Pharmacokinetics of ^14C-HB in Balb/c mice bearing the EMT6/Ed tumor in one flank. […] With respect to skin, the optimal therapeutic ratio for tumor occurs 2 hours following drug administration.

Like-named read-outs stand apart in the source and are kept apart here. Marks after values point to notes of the source that are not given here.

For the substance “2-(N,N-diethyl-amino) ethylamine-HB [HBDD-R2]”, in data set [1], the “Photopotentiation Factor” value was greater than 3.3 and the “LD50 Light” value amounted to 7.5 µM. In addition, in data set [2], the “^1O2 Yield” value was 0.36.
Take “2-(N,N-dimethyl-amino) propylamine-HB [HBDP-R1]”: in data set [1], the “toxicity (in words)” value was “average or lower than average toxicity”, the “Photopotentiation Factor” value was >16.6-50 and the “LD50 Light” value fell in the range of 0.5 to 1.5 µM. Moreover, in data set [1] (without light), the “LD50 Dark” value was greater than 25 µM. In addition, the “^1O2 Yield” value in data set [2] was 0.42.
Take “2-morpholino-ethyl-aminated-HB [HBAM-R1]”: in data set [1], the “LD50 Dark” value is greater than 25 µM, the “Photopotentiation Factor” value is given as greater than 6.25 and the “LD50 Light” value turned out to be 4 µM. The “Abs. Peak in red Spectral region” value in data set [3] was 658 nm. Moreover, the “^1O2 Yield” value in data set [2] was found to be 0.70.
Take Cystamine-HB [HBAC-R1]: in data set [1], the “Photopotentiation Factor” value was found to be 12.5 and the “LD50 Light” value turned out to be 1 µM. In data set [1] (without light), the “LD50 Dark” value was found to be 12.5 µM. For the same substance, in data set [3], the “Abs. Peak in red Spectral region” value was 646 nm, the “Extinction Coefficient (× 10^−3) (630 nm)” value (“Extinction Coefficient” below) is reported as 3.88 × 10^−3 and the A630 worked out at 0.388. Further, the Amax/solvent in data set [3] (solvent CHCl3) is given as 0.417/CHCl3. The “^1O2 Yield” value in data set [2] is 0.40.
Regarding Cystamine-HB [HBAC-R2], in data set [1], the “Photopotentiation Factor” value was 2.5 and the “LD50 Light” value worked out at 5 µM. Moreover, the “LD50 Dark” value in data set [1] (without light) worked out at 12.5 µM. In data set [3], the “Abs. Peak in red Spectral region” value was found to be 600 nm, the “Extinction Coefficient” value is listed as 2.44 × 10^−3 and the A630 was determined as 0.244. In addition, the Amax/solvent in data set [3] (solvent DMSO) is given as 0.337/DMSO. In addition, the “^1O2 Yield” value in data set [2] is given as 0.31.
On to Deacetylated-HA [DAHA], for which, in data set [1], the “LD50 Dark” value was greater than 25 µM and the “LD50 Light” value was greater than 5 µM. Further, in data set [3], the “Abs. Peak in red Spectral region” value is 622 nm, the “Extinction Coefficient” value was 5.70 × 10^−3 and the A630 is recorded as 0.570. Also, the “^1O2 Yield” value in data set [2] is 0.51.
With Ethanolamine-HB [HBEA-R2], in data set [1], the “Photopotentiation Factor” value was found to be 3.3 and the “LD50 Light” value came to 7.5 µM. Besides, the “LD50 Dark” value in data set [1] (without light) came to 25 µM. Further, the “^1O2 Yield” value in data set [2] was found to be 0.70.
Regarding Ethylenediamine-HB [HBED-R2], in data set [1], the “Photopotentiation Factor” value was 5-8.3 and the “LD50 Light” value lay in the range of 3 to 5 µM.
Turning to HA-Mg^++(Ac2), in data set [1], the “LD50 Dark” value was greater than 25 µM and the “LD50 Light” value was greater than 5 µM. For the same substance, in data set [3], the “Abs. Peak in red Spectral region” value was determined as 616 nm, the “Extinction Coefficient” value is 4.47 × 10^−3 and the A630 is recorded as 0.447. For the same substance, the Amax/solvent in data set [3] (solvent EtOH) is on record as 0.958/EtOH. The “^1O2 Yield” value in data set [2] is 0.71.
For HB-Mg^++, in data set [1], the “LD50 Dark” value worked out at 10 µM, the “Photopotentiation Factor” value came to 10 and the “LD50 Light” value came to 1 µM. In data set [3], the “Abs. Peak in red Spectral region” value was determined as 622 nm, the “Extinction Coefficient” value was 5.27 × 10^−3 and the A630 was determined as 0.527. Moreover, the Amax/solvent in data set [3] (solvent EtOH) is on record as 0.604/EtOH. Besides, the “^1O2 Yield” value in data set [2] is reported as 0.53.
As for Hypocrellin A [HA, reference compound], in data set [1], the “Photopotentiation Factor” value is 3-5 and the “LD50 Light” value is 3 to 5 µM. For the same substance, the “LD50 Dark” value in data set [1] (without light) was 15 µM. Besides, in data set [3], the “Abs. Peak in red Spectral region” value is 658* nm, the “Extinction Coefficient” value was 0.86 × 10^−3 and the A630 worked out at 0.086. Besides, in data set [3] (solvent DMF), the Amax/solvent was 0.093/DMF. In data set [2], the “^1O2 Yield” value came to 0.84.
Methylamine-HB [HBMA-IV]: in data set [1], the “Photopotentiation Factor” value was found to be 8.5 and the “LD50 Light” value was 1 µM.
As to ^14C-Hypocrellin B, the clearance from blood entry in data set [4] (Balb/c mice bearing EMT6/Ed tumor) is recorded as “rapid clearance”. Also, the “Tissue Uptake of ^14C-Hypocrellin B” value in data set [4] (Bone, 0 Hours) is listed as 19,825 ± 2,300 dpm/g; in data set [4] (Bone, 2 Hours) it was 3,955 ± 2,070 dpm/g; in data set [4] (Bone, 24 Hours), 660 ± 215 dpm/g; in data set [4] (Bone, 48 Hours), 1,125 ± 310 dpm/g; in data set [4] (Brain, 0 Hours), 17,560 ± 560 dpm/g; in data set [4] (Brain, 2 Hours), 3,855 ± 170 dpm/g. The “Tissue Uptake of ^14C-Hypocrellin B” value in data set [4] (Brain, 24 Hours) was 2,840 ± 275 dpm/g; in data set [4] (Brain, 48 Hours), 845 ± 90 dpm/g; in data set [4] (Fat, 0 Hours), 20,550 ± 715 dpm/g; in data set [4] (Fat, 2 Hours), 38,570 ± 5,610 dpm/g; in data set [4] (Fat, 24 Hours), 19,550 ± 2,210 dpm/g; in data set [4] (Fat, 48 Hours), 19,335 ± 2,335 dpm/g. Further, the “Tissue Uptake of ^14C-Hypocrellin B” value is reported as 113,920 ± 3,365 dpm/g in data set [4] (Heart, 0 Hours); 5,135 ± 910 dpm/g in data set [4] (Heart, 2 Hours); 7,835 ± 1,810 dpm/g in data set [4] (Heart, 24 Hours); 2,325 ± 245 dpm/g in data set [4] (Heart, 48 Hours); 45,400 ± 3,600 dpm/g in data set [4] (Ileum, 0 Hours); 20,280 ± 2,850 dpm/g in data set [4] (Ileum, 2 Hours). Moreover, the “Tissue Uptake of ^14C-Hypocrellin B” value is listed as 5,800 ± 645 dpm/g in data set [4] (Ileum, 24 Hours); 2,840 ± 595 dpm/g in data set [4] (Ileum, 48 Hours); 67,344 ± 950 dpm/g in data set [4] (Kidney, 0 Hours); 20,855 ± 3,955 dpm/g in data set [4] (Kidney, 2 Hours); 12,050 ± 1,845 dpm/g in data set [4] (Kidney, 24 Hours); 4,535 ± 765 dpm/g in data set [4] (Kidney, 48 Hours). Further, the “Tissue Uptake of ^14C-Hypocrellin B” value is 394,190 ± 7,540 dpm/g in data set [4] (Liver, 0 Hours); 24,620 ± 4,885 dpm/g in data set [4] (Liver, 2 Hours); 22,495 ± 4,440 dpm/g in data set [4] (Liver, 24 Hours); 9,215 ± 720 dpm/g in data set [4] (Liver, 48 Hours); 651,100 ± 42,668 dpm/g in data set [4] (Lung, 0 Hours); 8,580 ± 655 dpm/g in data set [4] (Lung, 2 Hours). For the same substance, the “Tissue Uptake of ^14C-Hypocrellin B” value is on record as 3870 ± 525 dpm/g in data set [4] (Lung, 24 Hours); 2,975 ± 360 dpm/g in data set [4] (Lung, 48 Hours); 13,665 ± 600 dpm/g in data set [4] (Muscle, 0 Hours); 4,050 ± 940 dpm/g in data set [4] (Muscle, 2 Hours); 2,875 ± 560 dpm/g in data set [4] (Muscle, 24 Hours); 1,015 ± 205 dpm/g in data set [4] (Muscle, 48 Hours). Further, the “Tissue Uptake of ^14C-Hypocrellin B” value is 32,010 ± 2,165 dpm/g in data set [4] (Pancreas, 0 Hours); 13,185 ± 12,055 dpm/g in data set [4] (Pancreas, 2 Hours); 32,390 ± 11,840 dpm/g in data set [4] (Pancreas, 24 Hours); 16,915 ± 3,845 dpm/g in data set [4] (Pancreas, 48 Hours); 69,975 ± 1,925 dpm/g in data set [4] (Serum, 0 Hours); 1,655 ± 170 dpm/g in data set [4] (Serum, 2 Hours). For the same substance, the “Tissue Uptake of ^14C-Hypocrellin B” value is on record as 1,020 ± 160 dpm/g in data set [4] (Serum, 24 Hours); 700 ± 240 dpm/g in data set [4] (Serum, 48 Hours); 14,970 ± 74 dpm/g in data set [4] (Skin, 0 Hours); 3,130 ± 221 dpm/g in data set [4] (Skin, 2 Hours); 2,700 ± 170 dpm/g in data set [4] (Skin, 24 Hours); 1,590 ± 250 dpm/g in data set [4] (Skin, 48 Hours). Besides, the “Tissue Uptake of ^14C-Hypocrellin B” value in data set [4] (Spleen, 0 Hours) is reported as 151,870 ± 9,395 dpm/g; in data set [4] (Spleen, 2 Hours), 58,900 ± 4,205 dpm/g; in data set [4] (Spleen, 24 Hours), 14,970 ± 3,215 dpm/g; in data set [4] (Spleen, 48 Hours), 26,700 ± 11,105 dpm/g; in data set [4] (Stomach, 0 Hours), 28,280 ± 145 dpm/g; in data set [4] (Stomach, 2 Hours), 21,630 ± 3,345 dpm/g. In addition, the “Tissue Uptake of ^14C-Hypocrellin B” value in data set [4] (Stomach, 24 Hours) is given as 34,385 ± 8,795 dpm/g; in data set [4] (Stomach, 48 Hours), 12,460 ± 975 dpm/g; in data set [4] (Tumor, 0 Hours), 7,885 ± 270 dpm/g; in data set [4] (Tumor, 2 Hours) it was 3,775 ± 400 dpm/g; in data set [4] (Tumor, 24 Hours) it was 2,950 ± 80 dpm/g; in data set [4] (Tumor, 48 Hours), 2,165 ± 470 dpm/g. Also, the “time of optimal therapeutic ratio for tumor with respect to skin” value in data set [4] (following drug administration) was found to be 2 h.
